Reference: ChEMBL document CHEMBL1135058, “New anti-malarial compounds from database searching” (Bioorg Med Chem Lett, 2002)

What follows are molecules tested on Plasmodium falciparum (assay: In vitro inhibition as IC50 against Plasmodium falciparum by [3H]hypoxanthine uptake; Not active). Conditions: not given; call rule not given here.
Type: functional, organism-based
For `Cc1ccc(C(C)C)c(OP(=S)(S)Oc2cc(C)ccc2C(C)C)c1`, the IC50 was “Not Active”.

These molecules were tested on Plasmodium falciparum (assay: In vitro inhibition as IC50 against Plasmodium falciparum by [3H]hypoxanthine uptake). Conditions: not given.
Type: functional, organism-based
Molecule `CCN(CC)CCCC(C)Nc1ccnc2cc(Cl)ccc12.O=P(O)(O)O.O=P(O)(O)O` (centres undefined) [CHLOROQUINE PHOSPHATE] has an IC50 of 0.16 µg/mL.

Same assay, conditions: Plasmodium falciparum; read-out: IC50
Work on `COc1cc(C(=O)C(O)c2cc(OC)c(OC)c(OC)c2)cc(OC)c1OC` (centres undefined) yielded an IC50 of 20 µM.
`COc1ccc(C2OCC3(O)C(c4ccc(OC)c(OC)c4)OCC23)cc1OC` (centres undefined) gave an IC50 of 3.2 µM.
`COc1ccc(C(O)C2c3c(cc4c(c3OC)OCO4)CCN2C)c(CO)c1OC` (centres undefined) was tested, and the IC50 was 8 µM.
With `COc1ccccc1/C=C/C(=O)O` [COUMARINIC ACID METHYL ETHER] the IC50 was 3 µM.
Molecule `COc1cccc(CN2CCCN(Cc3cccc(OC)c3O)C2c2ccc(N(CCCl)CCCl)cc2C)c1O` has an IC50 of 1.2 µM.
In the case of `COc1ccc(CC(=O)c2c(O)c3c(c(CC=C(C)C)c2OC)OC(C)(C)CC3)cc1`, the IC50 is reported as 6.2 µM.
With `COc1cc(C(c2c(O)oc3ccccc3c2=O)c2c(O)oc3ccccc3c2=O)cc(OC)c1OC` the IC50 was greater than 2 µM.
Molecule `CCN(CC)c1ccc(NCC(O)c2cc(Cl)ccc2OC)cc1` (centres undefined) has an IC50 of 4 µM.
With `Cc1cc2c3c(c1-c1c(C)cc4c(C(C)C)c(O)c(O)c(C=N)c4c1O)OC1=C4C(=O)C(O)C(C(C)C)c5cc(C)c(-c6c(C)cc7c(C(C)C)c(O)c(O)c(C=O)c7c6O)c(c54)OC(=C3C(=O)C(O)C2C(C)C)N1` (centres undefined) the IC50 was 6.6 µM.
Molecule `O=C1C=CC(=C(c2ccc(O)cc2)c2c(Cl)c(Cl)c(Cl)c(Cl)c2C(=O)O)C=C1` has an IC50 of 20 µM.
With `COc1ccc(/C(=N\O)c2nccc3cc(OC)c(OC)cc23)cc1OC` the IC50 was 20 µM.
`COc1cccc(C(O)C2=CC(=O)c3ccccc3C2=O)c1OC` (centres undefined) gave an IC50 of 4.6 µM.
